Patent publication US20260049085A1, “CYCLIC COMPOUNDS AND METHODS OF USING SAME” (SCHRÖDINGER, INC., priority 2022, published 2026)

These compounds were tested against T1, full-length MALT1 protein His-MALT1(1-824) (Homo sapiens, UniProt Q9UDY8) (assay: MALT1 protease assay (Ac-LRSR-AMC tetrapeptide substrate, fluorescence)). Conditions: 1 nM MALT1, 25 μM Ac-LRSR-AMC, 2 h pre-incubation, 8 hr incubation at RT.
T1 construct: full-length MALT1 protein His-MALT1(1-824); His (N); made in house; host or cells: baculovirus-infected insect cells
T1 sequence (Q9UDY8 1-824): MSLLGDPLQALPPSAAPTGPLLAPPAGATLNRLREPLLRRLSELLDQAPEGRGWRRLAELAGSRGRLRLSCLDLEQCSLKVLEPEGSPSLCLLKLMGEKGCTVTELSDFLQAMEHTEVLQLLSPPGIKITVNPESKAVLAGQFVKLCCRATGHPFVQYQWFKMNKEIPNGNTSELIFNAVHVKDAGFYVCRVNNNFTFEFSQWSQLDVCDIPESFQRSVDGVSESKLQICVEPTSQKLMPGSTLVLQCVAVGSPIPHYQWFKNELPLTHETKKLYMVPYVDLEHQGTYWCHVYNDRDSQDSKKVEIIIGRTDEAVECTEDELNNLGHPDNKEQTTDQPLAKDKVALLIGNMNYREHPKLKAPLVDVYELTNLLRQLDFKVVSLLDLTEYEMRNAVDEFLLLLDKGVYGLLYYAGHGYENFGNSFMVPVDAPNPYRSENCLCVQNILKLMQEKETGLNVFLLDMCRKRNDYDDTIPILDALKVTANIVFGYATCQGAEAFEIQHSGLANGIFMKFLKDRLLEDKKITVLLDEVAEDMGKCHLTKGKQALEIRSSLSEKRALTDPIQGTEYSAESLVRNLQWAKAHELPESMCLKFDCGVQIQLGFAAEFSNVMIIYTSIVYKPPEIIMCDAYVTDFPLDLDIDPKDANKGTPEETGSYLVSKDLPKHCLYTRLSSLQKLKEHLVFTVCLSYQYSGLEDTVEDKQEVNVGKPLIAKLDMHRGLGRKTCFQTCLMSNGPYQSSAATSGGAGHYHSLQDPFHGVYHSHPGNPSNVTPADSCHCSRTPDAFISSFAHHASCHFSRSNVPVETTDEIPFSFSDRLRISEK
Type: biochemical
Method: MALT1 protease activity was assessed in an in vitro assay using a tetrapeptide as substrate and full-length MALT1 protein His-MALT1(1-824) purified from baculovirus-infected insect cells.
The final assay buffer includes 1 nM of MALT1 full-length protein, 25 μM Ac-LRSR-AMC substrate, 50 mM Tris pH 7.5, 600 mM Sodium Citrate, 1 mM DTT, 1 mM EDTA, and 0.05% BSA in 384-well plate format using black microtiter square well plates (Optiplate 384-F, Perkin Elmer).
Test compounds were dissolved in 100% DMSO stock of 10 mM, with final DMSO concentration of 0.1%. Test compounds were pre-incubated with MALT1 protein for 2 h at room temperature. Substrate was added after the pre-incubation and fluorescence signal was measured using Envision at excitation 355 nm and emission 460 nm after 8 hr incubation at RT.
The fluorescence units were transformed to percentage of remaining activity by using the high control (HC, median of fluorescence signal from wells containing MALT1 protein, substrate, and DMSO) and low control (LC, median of fluorescence signal from wells with substrate only) with the formula below: […]
IC50 and Hill coefficients were obtained using Graph Pad Prism (Graph Pad software, Inc, USA) with non-linear regression analysis.

IC50 [µM]	Compound
0.01 to 0.1	CC1(c2ccn(C(F)F)n2)CC(C(=O)Nc2cnc(-c3ncc(F)cn3)c(Cl)c2)c2cnc3cc(F)nn3c21 (single isomer, unassigned) [Example 114]
< 0.01	C[C@]1(c2cncs2)C[C@H](C(=O)Nc2cnc(-n3nccn3)c(Cl)c2)c2cnc3cc(F)nn3c21 (single isomer, unassigned) [Example 36]
≥ 1	COc1cc(NC(=O)[C@H]2C[C@](C)(c3ccn(C(F)F)n3)c3c2cnc2cc(F)nn32)cnc1-c1ncccn1 (single isomer, unassigned) [Example 179]
≥ 1	CCn1cc([C@]2(C)C[C@@H](C(=O)Nc3cnc(-n4nccn4)c(Cl)c3)c3cnc4cc(F)nn4c32)cn1 (single isomer, unassigned) [Example 21]
≥ 1	Cn1cc([C@@]2(C)C[C@@H](C(=O)Nc3cnc(-n4nccn4)c(Cl)c3)c3cnc4c(Cl)c(F)nn4c32)cn1 (single isomer, unassigned) [Example 19, cis-3-chloro-N-(5-chloro-6-(2H-1,2,3-triazol-2-yl)pyridin-3-yl)-2-fluoro-8-methyl-8-(1-methyl-1H-pyrazol-4-yl)-7,8-dihydro-6H-cyclopenta[e]pyrazolo[1,5-a]pyrimidine-6-carboxamide]
0.1 to 1	C[C@@]1(c2cnn(C(F)F)c2)C[C@H](C(=O)Nc2cnc(-c3ncccn3)c(C(F)(F)F)c2)c2cnc3cc(F)nn3c21 (single isomer, unassigned) [Example 150]
≥ 1	C[C@]1(c2ccn(C(F)F)n2)C[C@@H](C(=O)Nc2cnc(-c3ncccn3)c(Cl)c2)c2cnc3cc(F)nn3c21 (single isomer, unassigned) [Example 143]
0.01 to 0.1	Cn1cc([C@@]2(C)C[C@H](C(=O)Nc3cnc(OC(F)(F)F)c(C#N)c3)c3cnc4cc(F)nn4c32)cn1 (single isomer, unassigned) [Example 52]
0.1 to 1	C[C@]1(c2ccn(C(F)F)n2)C[C@@H](C(=O)Nc2cnc(-c3ncccn3)c(C(F)(F)F)c2)c2cnc3cc(F)nn3c21 (single isomer, unassigned) [Example 139]
≥ 1	C[C@@]1(c2ccn(C(F)F)n2)C[C@@H](C(=O)Nc2cnc(-c3ncccn3)c(C(F)(F)F)c2)c2cnc3cc(F)nn3c21 (single isomer, unassigned) [Example 137]
0.01 to 0.1	C[C@@]1(c2cnn(C3CC3)c2)C[C@H](C(=O)Nc2cnc(OC(F)F)c(C#N)c2)c2cnc3cc(F)nn3c21 (single isomer, unassigned) [Example 74]
0.1 to 1	CC(F)(F)n1ccc([C@]2(C)C[C@H](C(=O)Nc3cnc(-c4ncccn4)c(Cl)c3)c3cnc4cc(F)nn4c32)n1 (racemic) [Example 170, (cis)-N-(5-chloro-6-(pyrimidin-2-yl)pyridin-3-yl)-8-(1-(1,1-difluoroethyl)-1H-pyrazol-3-yl)-2-fluoro-8-methyl-7,8-dihydro-6H-cyclopenta[e]pyrazolo[1,5-a]pyrimidine-6-carboxamide]
≥ 1	Cc1cc(NC(=O)[C@@H]2C[C@@](C)(c3cnn(C)c3)c3c2cnc2cc(F)nn32)cnc1-n1nccn1 (single isomer, unassigned) [Example 57, trans-2-fluoro-8-methyl-8-(1-methyl-1H-pyrazol-4-yl)-N-(5-methyl-6-(2H-1,2,3-triazol-2-yl)pyridin-3-yl)-7,8-dihydro-6H-cyclopenta[e]pyrazolo[1,5-a]pyrimidine-6-carboxamide]
0.1 to 1	C[C@]1(c2ccn(C(F)F)n2)C[C@@H](C(=O)Nc2ccc(-c3ncccn3)c(Cl)c2)c2cnc3cc(F)nn3c21 (single isomer, unassigned) [Example 192]
< 0.01	C[C@]1(c2ccn(C(F)F)n2)C[C@H](C(=O)Nc2ccc(-c3ncccn3)c(C(F)(F)F)c2)c2cnc3cc(F)nn3c21 (single isomer, unassigned) [Example 185]
0.01 to 0.1	C[C@]1(c2cncs2)C[C@@H](C(=O)Nc2cnc(-n3nccn3)c(Cl)c2)c2cnc3cc(F)nn3c21 (single isomer, unassigned) [Example 39]
0.1 to 1	Cn1ccc([C@]2(C)C[C@H](C(=O)Nc3cnc(OC(F)F)c(C#N)c3)c3cnc4cc(F)nn4c32)n1 (single isomer, unassigned) [Example 70]
0.01 to 0.1	Cn1cc([C@@]2(C)C[C@H](C(=O)Nc3ccnc(C(F)(F)F)c3)c3cnc4cc(Cl)nn4c32)cn1 (single isomer, unassigned) [Example 44]

IC50 [µM]	Compound
≥ 1	COc1cc(NC(=O)[C@H]2C[C@@](C)(c3ccn(C(F)F)n3)c3c2cnc2cc(F)nn32)cnc1-c1ncccn1 (single isomer, unassigned) [Example 181]
≥ 1	C[C@@]1(c2cnn(C(F)F)c2)C[C@@H](C(=O)Nc2cnc(-n3nccn3)c(C(F)(F)F)c2)c2cnc3cc(F)nn3c21 (single isomer, unassigned) [Example 81]
< 0.01	C[C@]1(c2cnn(C(F)F)n2)C[C@H](C(=O)Nc2cnc(-n3nccn3)c(Cl)c2)c2cnc3cc(F)nn3c21 (single isomer, unassigned) [Example 177]
0.1 to 1	C[C@]1(c2cnn(C(F)F)c2)C[C@@H](C(=O)Nc2cnc(OC(F)F)c(C#N)c2)c2cnc3cc(F)nn3c21 (single isomer, unassigned) [Example 95]
≥ 1	CC1(c2cnn(C3(C)CC3)c2)CC(C(=O)Nc2cnc(-n3nccn3)c(Cl)c2)c2cnc3cc(F)nn3c21 (single isomer, unassigned) [Example 107]
0.1 to 1	C[C@]1(c2ccn(C(F)F)n2)C[C@@H](C(=O)Nc2cnc(-n3nccn3)c(Cl)c2)c2cnc3cc(F)nn3c21 (single isomer, unassigned) [Example 91]
0.1 to 1	C[C@@]1(c2cnn(C(F)F)n2)C[C@@H](C(=O)Nc2cnc(-n3nccn3)c(Cl)c2)c2cnc3cc(F)nn3c21 (single isomer, unassigned) [Example 178]
≥ 1	C[C@]1(c2ccn(C3CC3)n2)C[C@@H](C(=O)Nc2cnc(-n3nccn3)c(Cl)c2)c2cnc3cc(F)nn3c21 (single isomer, unassigned) [Example 155]
0.1 to 1	Cn1cc([C@]2(C)C[C@H](C(=O)Nc3cnc(-n4nccn4)c(Cl)c3)c3cnc4c(F)c(F)nn4c32)cn1 (single isomer, unassigned) [Example 14]
≥ 1	C[C@@]1(c2cnn(C3CC3)c2)C[C@@H](C(=O)Nc2cnc(OC(F)F)c(C#N)c2)c2cnc3cc(F)nn3c21 (single isomer, unassigned) [Example 73]
≥ 1	C[C@@]1(c2ccn(C(F)F)n2)C[C@@H](C(=O)Nc2cnc(OC(F)F)c(C#N)c2)c2cnc3cc(F)nn3c21 (single isomer, unassigned) [Example 111]
0.01 to 0.1	C[C@@]1(c2cnn(C3CC3)c2)C[C@H](C(=O)Nc2cnc(-n3nccn3)c(Cl)c2)c2cnc3cc(F)nn3c21 (single isomer, unassigned) [Example 30]
< 0.01	CC(C)n1cc([C@@]2(C)C[C@H](C(=O)Nc3cnc(-n4nccn4)c(Cl)c3)c3cnc4cc(F)nn4c32)cn1 (single isomer, unassigned) [Example 48]
0.1 to 1	Cn1ccc([C@@]2(C)C[C@@H](C(=O)Nc3cnc(-n4nccn4)c(Cl)c3)c3cnc4cc(F)nn4c32)n1 (single isomer, unassigned) [Example 35]
< 0.01	C[C@]1(c2cnn(C3CC3)c2)C[C@H](C(=O)Nc2cnc(OC(F)F)c(C#N)c2)c2cnc3cc(F)nn3c21 (single isomer, unassigned) [Example 72]
≥ 1	C[C@@]1(c2cnn(C(F)F)c2)C[C@@H](C(=O)Nc2cnc(-c3ncncc3F)c(Cl)c2)c2cnc3cc(F)nn3c21 (single isomer, unassigned) [Example 157]
0.1 to 1	Cn1cc([C@@]2(C)C[C@H](C(=O)Nc3cnc(-n4nccn4)c(Cl)c3)c3cnc4c(Cl)c(F)nn4c32)cn1 (single isomer, unassigned) [Example 16]
≥ 1	CC1(c2ccn(C(F)F)n2)CC(C(=O)Nc2cnc(-c3ncccn3)c(C(F)F)c2)c2cnc3cc(F)nn3c21 (single isomer, unassigned) [Example 194]
